Laboratory results reported in patent publication US4362743A, “Antibacterial monic acid esters” (Beecham Group Limited, priority 1980, dated 1982).
Where two headings read alike, the source gives them in different places.

Experiments:
[1] = Serum binding by ultrafiltration; type: in vitro ADME; conditions: pig, porcine serum, 8 mcg/ml, read-out: % bound to pig serum (converted)
Description: Serum binding was assessed by ultrafiltration of porcine serum containing compounds at 8 mcg/ml, and through an Amicon CF50A ultrafiltration cone. Separation of ultrafiltrate was achieved by centrifugation. Unbound concentrations of compound were measured in the ultrafiltrate by microbiological assay (B. subtilis ATCC 6633) against standards prepared in saline.

[2] = system: M. suipneumoniae MS16; assay: Anti-mycoplasmal activity in vitro MIC; type: cell-based; conditions: Mesomycoplasma hyopneumoniae
[3] = system: M. hyorhinis ATCC 25021; assay: Anti-mycoplasmal activity in vitro MIC; type: cell-based; conditions: Mesomycoplasma hyorhinis, ATCC25021, 144 h
[4] = system: M. suipneumoniae ATCC 25095; assay: Anti-mycoplasmal activity in vitro MIC; type: cell-based; conditions: Mesomycoplasma hyopneumoniae, ATCC25095, 144 h
[5] = system: M. bovigenitalium ATCC 14173; assay: Anti-mycoplasmal activity in vitro MIC; type: cell-based; conditions: 144 h
[6] = system: M. suipneumoniae LABER; assay: Anti-mycoplasmal activity in vitro MIC; type: cell-based; conditions: Mesomycoplasma hyopneumoniae, 144 h
[7] = system: M. suipneumoniae PW/C/210; assay: Anti-mycoplasmal activity in vitro MIC; type: cell-based; conditions: Mesomycoplasma hyopneumoniae, 144 h
[8] = system: M. suipneumoniae UCD 1; assay: Anti-mycoplasmal activity in vitro MIC; type: cell-based; conditions: Mesomycoplasma hyopneumoniae, UCD1, 144 h
[9] = system: M. hyorhinis ATCC 23234; assay: Anti-mycoplasmal activity in vitro MIC; type: cell-based; conditions: Mesomycoplasma hyorhinis, ATCC23234, 144 h
[10] = system: M. dispar NCTC 10125; assay: Anti-mycoplasmal activity in vitro MIC; type: cell-based; conditions: 144 h
[11] = system: M. suipneumoniae TAM 6N; assay: Anti-mycoplasmal activity in vitro MIC; type: cell-based; conditions: Mesomycoplasma hyopneumoniae, TAM6N, 144 h
[12] = system: M. suipneumoniae NCTC 10110; assay: Anti-mycoplasmal activity in vitro MIC; type: cell-based; conditions: Mesomycoplasma hyopneumoniae, NCTC10110, 144 h
[13] = system: K. aerogenes A; assay: Human bacteria MIC; type: cell-based; conditions: Klebsiella aerogenes
Description: (§1) The values were determined by serial dilutions in nutrient agar with 5% chocolated horse blood after incubations for 18 hours at 37° C.

[14] = system: E. coli ESS; assay: Human bacteria MIC; type: cell-based; conditions: Escherichia coli
Description: as §1

[15] = system: Bacillus subtilis 6633; assay: Human bacteria MIC; type: cell-based
Description: as §1

[16] = system: P. mirabilis 889; assay: Human bacteria MIC; type: cell-based
Description: as §1

[17] = system: Sarcina lutea 8340; assay: Human bacteria MIC; type: cell-based
Description: as §1

[18] = system: Strep. Group C 64/848; assay: Human bacteria MIC; type: cell-based; conditions: Strep. Group C 64/848; nutrient agar, 5% chocolated horse blood, 18 hours 37° C.; read-out: M.I.C.
Description: as §1

[19] = system: Staph. aureus W2827; assay: Human bacteria MIC; type: cell-based; conditions: Staphylococcus aureus
Description: as §1

[20] = system: Staph. aureus Russell; assay: Human bacteria MIC; type: cell-based; conditions: Staphylococcus aureus; Staph. aureus Russell; nutrient agar, 5% chocolated horse blood, 18 hours 37° C.; read-out: M.I.C.
Description: as §1

[21] = system: Strep. pyogenes R80/421; assay: Human bacteria MIC; type: cell-based; conditions: Streptococcus pyogenes
Description: as §1

[22] = system: Strep. pneumoniae CN33; assay: Human bacteria MIC; type: cell-based; conditions: Streptococcus pneumoniae; Strep. pneumoniae CN33; nutrient agar, 5% chocolated horse blood, 18 hours 37° C.; read-out: M.I.C.
Description: as §1

[23] = system: Ps. aeruginosa 10662; assay: Human bacteria MIC; type: cell-based
Description: as §1

[24] = system: E. Coli NCT 10418; assay: Human bacteria MIC; type: cell-based; conditions: Escherichia coli
Description: as §1

[25] = system: M. suipneumoniae NB12; assay: Anti-mycoplasmal activity in vitro MIC; type: cell-based; conditions: Mesomycoplasma hyopneumoniae
[26] = system: M. pneumoniae ATCC 15492; assay: Anti-mycoplasmal activity in vitro MIC; type: cell-based; conditions: Mycoplasmoides pneumoniae, ATCC15492, 144 h
[27] = system: Haemophilus influenzae Wy21; assay: Human bacteria MIC; type: cell-based; conditions: Haemophilus influenzae Wy21; nutrient agar, 5% chocolated horse blood, 18 hours 37° C.; read-out: M.I.C.
Description: as §1

[28] = 144 h, M. suipneumoniae MS16, Friis broth, 0.9% agarose, 6 days 37° C., read-out: M.I.C.
[29] = M. suipneumoniae LABER, Friis broth, 0.9% agarose, 6 days 37° C., read-out: M.I.C.
[30] = M. suipneumoniae PW/C/210, Friis broth, 0.9% agarose, 6 days 37° C., read-out: M.I.C.
[31] = K. aerogenes A, nutrient agar, 5% chocolated horse blood, 18 hours 37° C., read-out: M.I.C.
[32] = Bacillus subtilis 6633, nutrient agar, 5% chocolated horse blood, 18 hours 37° C., read-out: M.I.C.
[33] = Proteus mirabilis, P. mirabilis 889, nutrient agar, 5% chocolated horse blood, 18 hours 37° C., read-out: M.I.C.
[34] = Micrococcus luteus, Sarcina lutea 8340, nutrient agar, 5% chocolated horse blood, 18 hours 37° C., read-out: M.I.C.
[35] = Staph. aureus W2827, nutrient agar, 5% chocolated horse blood, 18 hours 37° C., read-out: M.I.C.
[36] = Strep. pyogenes R80/421, nutrient agar, 5% chocolated horse blood, 18 hours 37° C., read-out: M.I.C.
[37] = Pseudomonas aeruginosa, Ps. aeruginosa 10662, nutrient agar, 5% chocolated horse blood, 18 hours 37° C., read-out: M.I.C.
[38] = E. Coli NCT 10418, nutrient agar, 5% chocolated horse blood, 18 hours 37° C., read-out: M.I.C.
[39] = M. suipneumoniae ATCC 25095, Friis broth, 0.9% agarose, 6 days 37° C., read-out: M.I.C.

C/C(=C\C(=O)OCCCC(=NO)c1cccs1)C[C@@H]1OC[C@H](C[C@@H]2O[C@H]2[C@@H](C)[C@H](C)O)[C@@H](O)[C@H]1O [Example 4, 4-Hydroxyimino-4-(2-thienyl)butyl monate A]
< 0.039: fraction unbound [1]
0.25 µg/mL: MIC [2, 28] | MIC ([3]; M. hyorhinis ATCC 25021, Friis broth, 0.9% agarose, 6 days 37° C., read-out: M.I.C.) | MIC [6, 29] | MIC [7, 30] | MIC ([9]; M. hyorhinis ATCC 23234, Friis broth, 0.9% agarose, 6 days 37° C., read-out: M.I.C.) | MIC ([25]; 144 h, M. suipneumoniae NB12, Friis broth, 0.9% agarose, 6 days 37° C., read-out: M.I.C.)
0.5 µg/mL: MIC [4] | MIC [8] | MIC [11] | MIC [12]
2.5 µg/mL: MIC ([14]; E. coli ESS, nutrient agar, 5% chocolated horse blood, 18 hours 37° C., read-out: M.I.C.) | MIC [19, 35] | MIC [20] | MIC ([26]; M. pneumoniae ATCC 15492, Friis broth, 0.9% agarose, 6 days 37° C., read-out: M.I.C.)
1 µg/mL: MIC [15, 32] | MIC [18] | MIC [21, 36] | MIC [22]
0.05 µg/mL: MIC [5]
0.1 µg/mL: MIC ([10]; M. dispar NCTC 10125, Friis broth, 0.9% agarose, 6 days 37° C., read-out: M.I.C.)
> 100 µg/mL: MIC [13, 31] | MIC [16, 33] | MIC [17, 34] | MIC [23, 37] | MIC [24, 38]

CON=C(CCCOC(=O)/C=C(\C)C[C@@H]1OC[C@H](C[C@@H]2O[C@H]2[C@@H](C)[C@H](C)O)[C@@H](O)[C@H]1O)c1ccccc1 [Example 5, 4-Methoxyimino-4-phenylbutyl monate A]
2.5 µg/mL: MIC [18] | MIC [19, 35] | MIC [20] | MIC [21, 36] | MIC [22] | MIC [26]
> 100 µg/mL: MIC [13, 31] | MIC [16, 33] | MIC [17, 34] | MIC [23, 37] | MIC [24, 38]
1 µg/mL: MIC [15, 32]
< 0.068: fraction unbound [1]
0.05 µg/mL: MIC ([5]; M. bovigenitalium ATCC 14173, Friis broth, 0.9% agarose, 6 days 37° C., read-out: M.I.C.)
5 µg/mL: MIC ([14]; 18 h)
0.5 µg/mL: MIC [4, 39] | MIC ([11]; M. suipneumoniae TAM 6N, Friis broth, 0.9% agarose, 6 days 37° C., read-out: M.I.C.)
0.1 µg/mL: MIC [10]
0.25 µg/mL: MIC ([2]; MS16, 144 h) | MIC [3] | MIC [6] | MIC [7] | MIC [8] | MIC [9] | MIC [12] | MIC ([25]; NB12, 144 h)

C/C(=C\C(=O)OCc1ccc(C=NO)o1)C[C@@H]1OC[C@H](C[C@@H]2O[C@H]2[C@@H](C)[C@H](C)O)[C@@H](O)[C@H]1O [Example 7, 5-Hydroxyiminomethylfurfuryl monate A]
0.25 µg/mL: MIC [27]
5 µg/mL: MIC ([19]; W2827, 18 h)
1 µg/mL: MIC [8] | MIC [11] | MIC [12] | MIC ([15]; Bacillus subtilis, 6633, 18 h) | MIC ([21]; R80/421, 18 h) | MIC ([25]; NB12, 144 h)
0.1 µg/mL: MIC [10]
2.5 µg/mL: MIC ([14]; 18 h) | MIC [18] | MIC [20] | MIC [22]
0.5 µg/mL: MIC [2, 28] | MIC [3] | MIC [4, 39] | MIC [6, 29] | MIC [7, 30] | MIC [9]
> 100 µg/mL: MIC ([13]; 18 h) | MIC ([16]; Proteus mirabilis, 889, 18 h) | MIC ([17]; Micrococcus luteus, 8340, 18 h) | MIC ([23]; Pseudomonas aeruginosa, 10662, 18 h) | MIC ([24]; 18 h)
0.025 µg/mL: MIC [5]
